Assay results taken from US6825348B2, “Antiviral compounds” (Academia Sinica, priority 2002, dated 2004).

Target: PRPP synthetase (UniProt P0A717)
Assay: PRPP synthetase reaction, conversion to diphosphates and inhibition of AMP phosphorylation
Type: biochemical
Procedure: Enzymatic Conversion of Acyclic Nucleoside Phosphonates and Nucleotide 5′-Monophosphate Analog to Their Antivirally Active Diphosphates (Triphosphate Equivalents). Substrate affinities of acyclic nucleoside phosphonates 4, 20, 21, and dinucleotide analog 24 for PRPP synthetase as well as their inhibitory effect against the enzyme were evaluated according to the established procedures. See, e.g., Balzarini et al. (1991) J. Biol. Chem. 266: 8686-8689 and references cited therein. The assays were then terminated after 4 h by the addition of MeOH. HPLC on an anion-exchange Partisphere column was used to analyze the formation of […] 21pp, PMEApp, 4pp, 20pp, and 24pp.

[1] = conversion to diphosphate by PRPP synthetase

| Structure (SMILES) | Vmax [1] | Vmax (phosphorylation by PRPP synthetase, no unit in text) | substrate affinity for PRPP synthetase, times less than that of PMEA 4 |
| --- | --- | --- | --- |
| Nc1ncnc2c1ncn2CCOCP(=O)(O)O [PMEA 4, 9-[2-(phosphonomethoxy)ethyl]adenine, reference compound] | 0.096 μmol/unit/h |  |  |
| Nc1ncnc2c1ncn2[C@@H]1O[C@H](COP(=O)(O)O)[C@@H](O)[C@H]1O [AMP 21, adenosine 5′-monophosphate, reference compound] | 14.270 μmol/unit/h | 14 |  |
| Nc1ncnc2ncn(CCOCP(=O)(O)O)c12 [Compound 20, 7-[2-(Phosphonomethoxy)ethyl]adenine] | 0.013 μmol/unit/h |  | 4 times |
